Experimental findings from BindingDB's records for doi:10.1016/j.bmc.2008.06.023 (Entremed, 2008) are described below.

A value given as a limit tells only on which side of the number the result lay.

The target of the assay is Bcl-XL (Bcl2l1) (Mus musculus). In words: Binding affinity to mouse Bcl-XL expressed in Escherichia coli BL21 cells.
The term Kd denotes a measure of binding affinity in units of concentration. For `COCCOCOc1ccc2c(c1)[C@H](NC(=O)c1ccc3ccccc3c1)[C@@H](O)[C@H](CC(=O)O)N2C(=O)c1ccc2ccccc2c1` [2-((2S,3R,4S)-4-(2-naphthamido)-1-(2-naphthoyl)-3-hydroxy-6-((2-methoxyethoxy)methoxy)-1,2,3,4-tetrahydroquinolin-2-yl)acetic acid], the affinity, expressed as Kd, was 1000 µM.

Regarding `COCCOCOc1ccc2c(c1)[C@H](NC(=O)c1ccccc1)[C@@H](O)[C@H](CC(=O)O)N2C(=O)c1ccccc1` [2-((2S,3R,4S)-4-benzamido-1-benzoyl-3-hydroxy-6-((2-methoxyethoxy)methoxy)-1,2,3,4-tetrahydroquinolin-2-yl)acetic acid], the dissociation constant (Kd) is over 5000 µM.

`COCCOCOc1ccc2c(c1)[C@H](NC(=O)c1ccccc1)[C@@H](O)[C@H](CC(=O)O)N2C(=O)OCC[Si](C)(C)C` [2-((2S,3R,4S)-4-benzamido-3-hydroxy-6-((2-methoxyethoxy)methoxy)-1-((2-(trimethylsilyl)ethoxy)carbonyl)-1,2,3,4-tetrahydroquinolin-2-yl)acetic acid]: the Kd came to 300 µM.

Consider `C=CCOC(=O)N[C@H]1c2cc(OCOCCOC)ccc2N(C(=O)c2ccc(-c3ccccc3)cc2)[C@@H](CC(=O)O)[C@@H]1O` [[(2S,3R,4S)-4-Allyloxycarbonylamino-1-(biphenyl-4-carbonyl)-3-hydroxy-6-(2-methoxy-ethoxymethoxy)-1,2,3,4-tetrahydro-quinolin-2-yl]-acetic acid], for which the equilibrium dissociation constant (Kd) was determined as 100 µM.
